In patent US6706706B2, “Non-nucleoside reverse transcriptase inhibitors” (priority 2002, dated 2004):

Legend:
[1] = target: HIV-1 RT wild-type (WT) (Human immunodeficiency virus type 1 group M subtype B, UniProt P03366); assay: biochemical
From the text: This activity can be quantitatively measured in a cell-free enzyme assay and is based upon the observation that reverse transcriptase is able to use a synthetic template poly r(C) primed with a biotinylated oligo d(G) to transcribe a radio-labeled DNA strand utilizing 3H-dGTP as a substrate.

[2] = system: HIV replication in C8166 cells, virus coding for wild type reverse transcriptase; assay: microbe, parasite or virus in culture; type: cell-based, HIV-1; conditions: Human immunodeficiency virus 1, 72 h, three days, extracellular p24
Protocol: The compound of the invention was tested for its ability to inhibit HIV replication in cell culture in a 96-well plate assay. Complete RPMI 1640, consisting of RPMI 1640+10% fetal bovine serum, 10 μg/ml gentamycin and 10 μM β-mercaptoethanol was used for dilution of the compound as well as cell growth medium. The T lymphocyte cell line C8166 was infected at a multiplicity of infection of 0.001 with viruses coding for wild type and mutant reverse transcriptase. Cells were then incubated for three days in the presence of serial dilutions of the compound of the invention. The supernatant was pooled from eight replica wells and the concentration of extracellular p24 was determined using a commercially available HIV-1 p24 antigen assay kit (Beckman-Coulter®). The level of inhibition (% inhibition) was calculated with the following equation: [formula]

| Structure (SMILES) | IC50 [1] | EC50 [2] |
| --- | --- | --- |
| CCN1c2ncc(CCOc3ccc(C(=O)O)cc3C)cc2C(=O)Nc2c(C)cc(Cl)nc21 [Entry 1016] | < 50 nM | – |
| CCN1c2ncc(CCOc3ccc(C(=O)O)c(O)c3C)cc2C(=O)N(C)c2cccnc21 [Entry 1004] | < 50 nM | < 50 nM |
| CCN1c2ncc(CCOc3ccc(C(=O)O)cc3C)cc2C(=O)N(C)c2ccc(N(C)C)nc21 [Entry 1028] | < 50 nM | – |
| CCN1c2ncc(CCOc3ccc(C(=O)O)c(N)c3)cc2C(=O)N(C)c2cccnc21 [Entry 1024] | < 50 nM | – |
| CCN1c2ncc(CCOc3ccc(C(C)C(=O)O)cc3C)cc2C(=O)N(C)c2cccnc21 (stereo not drawn) [Entry 1006] | < 50 nM | – |
| CCN1c2ncccc2NC(=O)c2cc(CCOc3ccc(C(=O)O)cc3C)cnc21 [Entry 1029] | < 50 nM | < 50 nM |
| CCN1c2ncc(CCOc3ccc(C(=O)O)c(C)c3C)cc2C(=O)N(C)c2cccnc21 [Entry 1001] | < 50 nM | < 50 nM |
| CCN1c2ncc(CCOc3ccc(C(=O)O)cc3[N+](=O)[O-])cc2C(=O)N(C)c2cccnc21 [Entry 1022] | 50 to 100 nM | 50 to 100 nM |
| CCN1c2ncc(CCOc3ccc(CCC(=O)O)cc3C)cc2C(=O)N(C)c2ccc(Cl)nc21 [Entry 1007] | < 50 nM | < 50 nM |
| CCN1c2ncc(CCOc3ccc(C(=O)OC)cc3C(F)(F)F)cc2C(=O)N(C)c2cccnc21 [Entry 1033] | < 50 nM | – |
| CCN1c2ncc(CCOc3ccc(C(=O)O)cc3C)cc2C(=O)N(C)c2ccc(C)nc21 [Entry 1017] | < 50 nM | – |
| CCN1c2ncc(CCOc3ccc(C=CC(=O)O)cc3C)cc2C(=O)N(C)c2cccnc21 [Entry 1010] | < 50 nM | < 50 nM |
| CCN1c2ncc(CCOc3ccc(C(=O)O)cc3C)cc2C(=O)N(C)c2ccc(Cl)nc21 [Entry 1015] | < 50 nM | – |
| CCN1c2ncc(CCOc3ccc(C(=O)O)cc3C)cc2C(=O)N(C)c2ccc(F)nc21 [Entry 1020] | < 50 nM | – |
| CCN1c2ncc(CCOc3ccc(CC(=O)O)cc3Br)cc2C(=O)N(C)c2cccnc21 [Entry 1012] | < 50 nM | – |
| CCOc1ccc2c(n1)N(CC)c1ncc(CCOc3ccc(C(=O)OC)cc3C)cc1C(=O)N2C [Entry 1034] | < 50 nM | – |
| CCN1c2ncc(CCOc3ccc(CCC(=O)O)cc3C)cc2C(=O)N(C)c2cccnc21 [Entry 1008] | < 50 nM | < 50 nM |
| CCN1c2ncc(CCOc3ccc(C(=O)O)cc3C)cc2C(=O)Nc2c(C)ccnc21 [Entry 1018] | < 50 nM | < 50 nM |

| Structure (SMILES) | IC50 [1] | EC50 [2] |
| --- | --- | --- |
| CCN1c2ncc(CCOc3ccc(C(=O)O)c(F)c3)cc2C(=O)N(C)c2cccnc21 [Entry 1025] | 50 to 100 nM | – |
| CCN1c2ncc(CCOc3ccc(CC(=O)O)cc3Cl)cc2C(=O)N(C)c2cccnc21 [Entry 1011] | < 50 nM | – |
| CCN1c2ncc(CCOc3ccc(C=CC(=O)O)cc3C)cc2C(=O)N(C)c2ccc(Cl)nc21 [Entry 1009] | < 50 nM | < 50 nM |
| CCN1c2ncc(CCOc3ccc(CC(=O)O)cc3C)cc2C(=O)N(C)c2cccnc21 [Entry 1014] | < 50 nM | < 50 nM |
| CCN1c2ncc(CCOc3ccc(C(=O)O)cc3Br)cc2C(=O)N(C)c2cccnc21 [Entry 1005] | < 50 nM | – |
| CCN1c2ncc(CCOc3ccc(C(=O)O)cc3Cl)cc2C(=O)N(C)c2cccnc21 [Entry 1023] | 50 to 100 nM | < 50 nM |
| CCc1cc(C(=O)OC)ccc1OCCc1cnc2c(c1)C(=O)N(C)c1cccnc1N2CC [Entry 1031] | < 50 nM | – |
| CCN1c2ncc(CCOc3ccc(C(=O)O)cc3C(F)(F)F)cc2C(=O)N(C)c2cccnc21 [Entry 1027] | 50 to 100 nM | – |
| CCN1c2ncc(CCOc3ccc(C(=O)OC)c(F)c3)cc2C(=O)N(C)c2cccnc21 [Entry 1035] | < 50 nM | – |
| CCN1c2ncc(CCOc3ccc(C(=O)O)cc3C)cc2C(=O)N(C)c2cccnc21 [Entry 1002] | < 50 nM | < 50 nM |
| CCN1c2ncc(CCOc3ccc(C(=O)OC)cc3Cl)cc2C(=O)N(C)c2cccnc21 [Entry 1032] | < 50 nM | – |
| CCc1cc(C(=O)O)ccc1OCCc1cnc2c(c1)C(=O)N(C)c1cccnc1N2CC [Entry 1003] | < 50 nM | – |
| CCOc1ccc2c(n1)N(CC)c1ncc(CCOc3ccc(C(=O)O)cc3C)cc1C(=O)N2C [Entry 1021] | < 50 nM | – |
| CCN1c2ncc(CCOc3ccc(C(=O)OC)cc3C)cc2C(=O)N(C)c2cccnc21 [Entry 1030] | < 50 nM | < 50 nM |
| CCN1c2ncc(CCOc3ccc(C(=O)O)c(Cl)c3)cc2C(=O)N(C)c2cccnc21 [Entry 1026] | 50 to 100 nM | – |
| CCN1c2ncc(CCOc3ccc(CC(=O)O)c(C)c3C)cc2C(=O)N(C)c2cccnc21 [Entry 1013] | < 50 nM | – |
| CCN1c2ncc(CCOc3ccc(C(=O)O)cc3C)cc2C(=O)N(C)c2ccc(OC)nc21 [Entry 1019] | < 50 nM | – |
